Legend:
Assay type in all cases: in vivo
Details in all cases: 15 days after application, 2-4 leaf stage, 0.5% v/v Mero, scale 0-100 (percentage of leaf area damaged), average of 4 replicates
[1] = system: Cotton - Inbred, PPO-Transgenic; test: Herbicide tolerance evaluation, greenhouse, PPO-transgenic cotton expressing HemG PPO H_N90
Experimental: (§1) Plant transformation vectors were constructed for expressing a chloroplast transit peptide operably linked to the PPO H_[…] (SEQ ID NO:1) in transgenic soybean, inbred corn, hybrid corn, and cotton plants, and introduced into seed-derived explants of soybean, inbred and hybrid corn, and cotton, respectively, through Agrobacterium tumefaciens-mediated transformation using standard methods known in the art. The regenerated R0 plants were analyzed to select for events with a single copy insertion for advancement to R1 nursery for R1 seed production. Seeds of the regenerated transgenic plants described above were sown in 12-cm tall plastic pots containing standard soil (14.7% sand, 19.9% clay, 65.4% silt, and 1.8% organic matter). Transgenic cotton and corn seed were sown at a density of one seed per pot, whereas soybean was sown at a density of three seeds per pot. Plants were grown in a greenhouse with 60% relative humidity in a light cycle of 13 hour day and 11 hour night. The temperature was kept at 23° C. during the day and 12° C. at night. Herbicide tolerance of transgenic soybean, inbred corn, hybrid corn, and cotton plants, to herbicidal formulations comprising any of A1 to A3 and A7 was measured by applying respective formulations to plants at the 2-4 leaf stage (corresponding to BBCH 12-14) at dose rates of 100 or 200 g ai/ha. Methylated rapeseed oil (Mero) is used as an adjuvant and added to the spray mix for each herbicide at 0.5% v/v. Plants were visually assessed for herbicide injury at the following time points: 8 days, 15 days, 22 days after application. Unsprayed transgenic plants were used for phenotypic comparison with unsprayed wild-type plants.

[2] = system: Corn - Inbred, PPO-Transgenic; test: Herbicide tolerance evaluation, greenhouse, PPO-transgenic inbred corn expressing HemG PPO H_N90
Experimental: as §1

[3] = system: Soybean - Inbred, Conventional; test: Herbicide injury rating, greenhouse, conventional soybean
Experimental: (§2) Seeds of the regenerated transgenic plants described above were sown in 12-cm tall plastic pots containing standard soil (14.7% sand, 19.9% clay, 65.4% silt, and 1.8% organic matter). Transgenic cotton and corn seed were sown at a density of one seed per pot, whereas soybean was sown at a density of three seeds per pot. Plants were grown in a greenhouse with 60% relative humidity in a light cycle of 13 hour day and 11 hour night. The temperature was kept at 23° C. during the day and 12° C. at night. Herbicide tolerance of transgenic soybean, inbred corn, hybrid corn, and cotton plants, to herbicidal formulations comprising any of A1 to A3 and A7 was measured by applying respective formulations to plants at the 2-4 leaf stage (corresponding to BBCH 12-14) at dose rates of 100 or 200 g ai/ha. Methylated rapeseed oil (Mero) is used as an adjuvant and added to the spray mix for each herbicide at 0.5% v/v. Plants were visually assessed for herbicide injury at the following time points: 8 days, 15 days, 22 days after application. Unsprayed transgenic plants were used for phenotypic comparison with unsprayed wild-type plants.

[4] = system: Corn - Hybrid, Conventional; test: Herbicide injury rating, greenhouse, conventional hybrid corn
Experimental: as §2

[5] = system: Corn - Inbred, Conventional; test: Herbicide injury rating, greenhouse, conventional inbred corn
Experimental: as §2

[6] = system: Soybean - Inbred, PPO-Transgenic; test: Herbicide tolerance evaluation, greenhouse, PPO-transgenic soybean expressing HemG PPO H_N90
Experimental: as §1

[7] = system: Cotton - Inbred, Conventional; test: Herbicide injury rating, greenhouse, conventional cotton
Experimental: as §2

[8] = system: Corn - Hybrid, PPO-Transgenic; test: Herbicide tolerance evaluation, greenhouse, PPO-transgenic hybrid corn expressing HemG PPO H_N90
Experimental: as §1

| SMILES | Injury rating, Cotton - Inbred PPO-Transgenic ([1]; 100 g ai/ha) | Injury rating, Cotton - Inbred PPO-Transgenic ([1]; 200 g ai/ha) | Injury rating, Corn - Inbred PPO-Transgenic ([2]; 100 g ai/ha) | Injury rating, Corn - Inbred PPO-Transgenic ([2]; 200 g ai/ha) | Injury rating, Soybean - Inbred Conventional ([3]; 100 g ai/ha) | Injury rating, Soybean - Inbred Conventional ([3]; 200 g ai/ha) | Injury rating, Corn - Hybrid Conventional ([4]; 100 g ai/ha) | Injury rating, Corn - Hybrid Conventional ([4]; 200 g ai/ha) | Injury rating, Corn - Inbred Conventional ([5]; 100 g ai/ha) | Injury rating, Corn - Inbred Conventional ([5]; 200 g ai/ha) | Injury rating, Soybean - Inbred PPO-Transgenic ([6]; 100 g ai/ha) | Injury rating, Soybean - Inbred PPO-Transgenic ([6]; 200 g ai/ha) | Injury rating, Cotton - Inbred Conventional ([7]; 100 g ai/ha) | Injury rating, Cotton - Inbred Conventional ([7]; 200 g ai/ha) | Injury rating, Corn - Hybrid PPO-Transgenic ([8]; 100 g ai/ha) | Injury rating, Corn - Hybrid PPO-Transgenic ([8]; 200 g ai/ha) |
| --- | --- | --- | --- | --- | --- | --- | --- | --- | --- | --- | --- | --- | --- | --- | --- | --- |
| CCOC(=O)C(C)OC(=O)C1(Oc2cc(-n3c(=O)cc(C(F)(F)F)n(C)c3=O)c(F)cc2Cl)CC1 (stereo not shown) [Compound A1, 1-ethoxy-1-oxopropan-2-yl 1-{2-chloro-4-fluoro-5-[3-methyl-2,6-dioxo-4-(trifluoromethyl)-3,6-dihydropyrimidin-1 (2H)-yl]phenoxy}cyclopropanecarboxylate] | 0 | 0 | 0 | 0 | 100 | 100 | 100 | 100 | 100 | 100 | 0 | 0 | 100 | 100 | 0 | 0 |
| CC(OC(=O)C1(Oc2cc(-n3c(=O)cc(C(F)(F)F)n(C)c3=O)c(F)cc2Cl)CC1)C(=O)O (stereo not shown) [Compound A2, 2-{[(1-{2-chloro-4-fluoro-5-[3-methyl-2,6-dioxo-4-(trifluoromethyl)-3,6-dihydropyrimidin-1 (2H)-yl]phenoxy}cyclopropyl)carbonyl]oxy}propanoic acid] | 0 | 0 | 0 | 0 | 100 | 100 | 100 | 100 | 100 | 100 | 0 | 0 | 100 | 100 | 0 | 0 |
| COC(=O)C(C)OC(=O)C1(Oc2cc(-n3c(=O)cc(C(F)(F)F)n(C)c3=O)c(F)cc2Cl)CC1 (stereo not shown) [Compound A3, 1-methoxy-1-oxopropan-2-yl 1-{2-chloro-4-fluoro-5-[3-methyl-2,6-dioxo-4-(trifluoromethyl)-3,6-dihydropyrimidin-1 (2H)-yl]phenoxy}cyclopropanecarboxylate] | 0 | 0 | 0 | 0 | 100 | 100 | 100 | 100 | 100 | 100 | 0 | 0 | 100 | 100 | 0 | 0 |
| C=CCOC(=O)C(C)OC(=O)C1(Oc2cc(-n3c(=O)cc(C(F)(F)F)n(C)c3=O)c(F)cc2Cl)CC1 (stereo not shown) [Compound A7, 1-(allyloxy)-1-oxopropan-2-yl 1-{2-chloro-4-fluoro-5-[3-methyl-2,6-dioxo-4-(trifluoromethyl)-3,6-dihydropyrimidin-1 (2H)-yl]phenoxy}cyclopropanecarboxylate.] | 0 | 0 | 0 | 0 | 100 | 100 | 100 | 100 | 100 | 100 | 0 | 0 | 100− | 100 | 0 | 0 |

Source: patent US20250228243A1, “METHODS AND COMPOSITIONS FOR PPO HERBICIDE TOLERANCE” (Monsanto Technology LLC, priority 2024, published 2025)
